Experiments:
Assay type in all cases: biochemical
EcDHDPS = target: T1, EcDHDPS (Escherichia coli, UniProt P0A6L2); test: coupled enzymatic assay (Yugari and Gilvarg); details: co-substrate pyruvate
T1 construct: gene dapA; dapA amplified from E. coli genomic DNA into pET-28a(+), expressed in E. coli Rosetta, Ni-NTA
T1 sequence (P0A6L2 1-292): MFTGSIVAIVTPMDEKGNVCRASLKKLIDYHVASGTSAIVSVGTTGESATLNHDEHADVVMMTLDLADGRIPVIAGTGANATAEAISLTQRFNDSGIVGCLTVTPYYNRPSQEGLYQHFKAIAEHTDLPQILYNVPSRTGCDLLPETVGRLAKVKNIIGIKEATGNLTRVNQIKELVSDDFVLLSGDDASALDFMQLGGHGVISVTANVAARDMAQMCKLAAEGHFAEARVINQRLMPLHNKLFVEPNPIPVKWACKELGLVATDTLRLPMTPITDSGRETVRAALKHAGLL

CgNal [1] = target: T2, CgNal (Corynebacterium glutamicum, UniProt Q8NMD2); test: HPLC of substrates and products, Neu5Ac synthesis; details: 0.1 M Tris-HCl pH 7.5, assay at 37 °C, synthesis direction
T2 construct: gene Cgl2646; full length 312 aa (939 bp ORF), pET-28a(+), N-terminal His6-tag, E. coli Rosetta (DE3) pLysS, ~33 kDa, Ni-NTA; NAL family homotetramer
T2 sequence (Q8NMD2 entry or part of it): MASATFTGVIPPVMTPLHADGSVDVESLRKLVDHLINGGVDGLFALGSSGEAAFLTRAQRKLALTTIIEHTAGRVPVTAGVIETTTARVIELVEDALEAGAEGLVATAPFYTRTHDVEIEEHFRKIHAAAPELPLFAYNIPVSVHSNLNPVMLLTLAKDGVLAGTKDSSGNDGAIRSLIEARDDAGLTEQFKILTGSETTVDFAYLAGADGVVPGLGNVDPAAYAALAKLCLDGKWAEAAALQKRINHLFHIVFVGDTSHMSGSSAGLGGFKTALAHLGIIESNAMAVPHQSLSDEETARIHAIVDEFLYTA
Description: HPLC of substrates and products, Neu5Ac synthesis on CgNal

CgNal [2] = target: T2, CgNal; test: HPLC of substrates and products, Neu5Ac cleavage; details: read-out: Neu5Ac Cleavage / Neu5Ac / Km; 0.1 M Tris-HCl pH 7.5, assay at 37 °C; cleavage direction
Description: HPLC of substrates and products, Neu5Ac cleavage on CgNal

`N[C@@H](CC=O)C(=O)O` [ASA] was tested. Which “coupled enzymatic assay (Yugari and Gilvarg)” value (EcDHDPS) did it give?
The value was “Using ASA as substrate, CgNal showed only half the activity of EcDHDPS”.

For `CC(=O)N[C@@H]1C(O)O[C@H](CO)[C@@H](O)[C@@H]1O` (stereo partly shown) [ManNAc], which Km (CgNal [1]; read-out: Neu5Ac Synthesis / ManNAc / Km, pyruvate fixed at 100 mM) is on record?
The Km was 53.3 mM.

Which Km (CgNal [2]) does the source give for `CC(=O)N[C@H]1[C@H]([C@H](O)[C@H](O)CO)OC(O)(C(=O)O)C[C@@H]1O` (stereo partly shown) [Neu5Ac] here?
The Km was 33.5 mM.

How did the Km (CgNal [1]; read-out: Neu5Ac Synthesis / Pyruvate / Km, ManNAc fixed at 50 mM) turn out when `CC(=O)C(=O)O` [pyruvate] was run?
The Km was 14.7 mM.

From publication PMC5380162, “Characterization of a novel N-acetylneuraminic acid lyase favoring N-acetylneuraminic acid synthesis” (Scientific Reports, 2015)
